Experiments:
[1] = target: T1, rat-species vanilloid receptor 1 (VR1/TRPV1) (Rattus norvegicus, UniProt O35433); assay: Functional testing on the vanilloid receptor 1, FLIPR Ca2+ influx in rat DRG cells, capsaicin; assay type: cell-based; set-up: key to Ki (rat) [nM] Cap: agonist / partial agonist / no effect: AG=agonist; pAG=partial agonist; NE=no effect; settings: for Ki: capsaicin (Cap), includes values given in brackets after pAG
T1 construct: endogenous in cells; host or cells: primary cells dissociated from rat dorsal root ganglia (DRG), cultured 2-3 days with NGF
T1 sequence (O35433 whole entry): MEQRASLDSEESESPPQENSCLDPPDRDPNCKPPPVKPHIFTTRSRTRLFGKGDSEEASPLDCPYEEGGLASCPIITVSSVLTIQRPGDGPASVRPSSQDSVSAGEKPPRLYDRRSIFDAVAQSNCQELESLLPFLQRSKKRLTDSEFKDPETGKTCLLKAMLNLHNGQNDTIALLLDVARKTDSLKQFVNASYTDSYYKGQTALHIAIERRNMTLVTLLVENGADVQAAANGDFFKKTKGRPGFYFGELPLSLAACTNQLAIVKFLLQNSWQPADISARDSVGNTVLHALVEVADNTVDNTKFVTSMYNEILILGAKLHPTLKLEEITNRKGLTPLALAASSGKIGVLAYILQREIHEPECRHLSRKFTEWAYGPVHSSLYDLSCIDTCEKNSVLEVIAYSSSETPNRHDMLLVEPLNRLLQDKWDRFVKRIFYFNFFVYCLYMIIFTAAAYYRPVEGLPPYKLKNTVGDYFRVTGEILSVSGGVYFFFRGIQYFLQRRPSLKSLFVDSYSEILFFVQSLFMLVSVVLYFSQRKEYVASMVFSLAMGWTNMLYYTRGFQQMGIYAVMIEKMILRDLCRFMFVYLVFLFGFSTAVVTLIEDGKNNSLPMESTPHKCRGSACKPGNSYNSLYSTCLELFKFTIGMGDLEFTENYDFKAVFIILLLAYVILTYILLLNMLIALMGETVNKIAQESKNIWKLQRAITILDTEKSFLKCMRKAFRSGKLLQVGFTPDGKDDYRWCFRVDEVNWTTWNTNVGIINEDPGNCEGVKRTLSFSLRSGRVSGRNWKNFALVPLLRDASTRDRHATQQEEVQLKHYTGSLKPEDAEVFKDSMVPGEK
Description: I. Functional Testing Carried Out on the Vanilloid Receptor 1 (VRI/TRPV1 Receptor)
(§1) The agonistic or antagonistic effect of the substances to be tested on the rat-species vanilloid receptor 1 (VR1/TRPV1) can be determined using the following assay. In this assay, the influx of Ca^2+ through the receptor channel is quantified with the aid of a Ca^2+-sensitive dye (type Fluo-4, Molecular Probes Europe BV, Leiden, the Netherlands) in a fluorescent imaging plate reader (FLIPR, Molecular Devices, Sunnyvale, USA).
Complete medium: 50 ml HAMS F12 nutrient mixture (Gibco Invitrogen GmbH, Karlsruhe, Germany) with
10% by volume of FCS (foetal calf serum, Gibco Invitrogen GmbH, Karlsruhe, Germany, heat-inactivated);
2 mM L-glutamine (Sigma, Munich, Germany);
1% by weight of AA solution (antibiotic/antimyotic solution, PAA, Pasching, Austria) and 25 ng/ml NGF medium (2.5 S, Gibco Invitrogen GmbH, Karlsruhe, Germany)
Cell culture plate: Poly-D-lysine-coated, black 96-well plates having a clear base (96-well black/clear plate, BD Biosciences, Heidelberg, Germany) are additionally coated with laminin (Gibco Invitrogen GmbH, Karlsruhe, Germany), the laminin being diluted with PBS (Ca—Mg-free PBS, Gibco Invitrogen GmbH, Karlsruhe, Germany) to a concentration of 100 μg/ml. Aliquots having a laminin concentration of 100 μg/ml are removed and stored at −20° C. The aliquots are diluted with PBS in a ratio of 1:10 to 10 μg/ml of laminin and respectively 50 μL of the solution are pipetted into a recess in the cell culture plate. The cell culture plates are incubated for at least two hours at 37° C., the excess solution is removed by suction and the recesses are each washed twice with PBS. The coated cell culture plates are stored with excess PBS which is not removed until just before the feeding of the cells.
Preparation of the Cells:
The vertebral column is removed from decapitated rats and placed immediately into cold HBSS buffer (Hank's buffered saline solution, Gibco Invitrogen GmbH, Karlsruhe, Germany), i.e. buffer located in an ice bath, mixed with 1% by volume (per cent by volume) of an AA solution (antibiotic/antimyotic solution, PAA, Pasching, Austria). The vertebral column is cut longitudinally and removed together with fasciae from the vertebral canal. Subsequently, the dorsal root ganglia (DRG) are removed and again stored in cold HBSS buffer mixed with 1% by volume of an AA solution. The DRG, from which all blood remnants and spinal nerves have been removed, are transferred in each case to 500 μL of cold type 2 collagenase (PAA, Pasching, Austria) and incubated for 35 minutes at 37° C. After the addition of 2.5% by volume of trypsin (PAA, Pasching, Austria), incubation is continued for 10 minutes at 37° C. After complete incubation, the enzyme solution is carefully pipetted off and 500 μL of complete medium are added to each of the remaining DRG. The DRG are respectively suspended several times, drawn through cannulae No. 1, No. 12 and No. 16 using a syringe and transferred to a 50 ml Falcon tube which is filled up to 15 ml with complete medium. The contents of each Falcon tube are respectively filtered through a 70 μm Falcon filter element and centrifuged for 10 minutes at 1,200 rpm and RT. The resulting pellet is respectively taken up in 250 μL of complete medium and the cell count is determined.
The number of cells in the suspension is set to 3×10^5 per ml and 150 μL of this suspension are in each case introduced into a recess in the cell culture plates coated as described hereinbefore. In the incubator the plates are left for two to three days at 37° C., 5% by volume of CO2 and 95% relative humidity. […]

hVR1 [2] = target: T2, hVR1 (Homo sapiens, UniProt Q8NER1); assay: Functional test on human VR1, 45° C. stimulus; assay type: cell-based, human being; set-up: key to IC50 (human being), 45° C.: agonist / partial agonist / no effect: AG=agonist; pAG=partial agonist; NE=no effect; settings: for IC50: read-out: IC50 (human being) [nM], 45° C.
T2 construct: expressed in transfected cells; host or cells: CHO K1 cells (ECACC), stably transfected
T2 sequence (Q8NER1 whole entry): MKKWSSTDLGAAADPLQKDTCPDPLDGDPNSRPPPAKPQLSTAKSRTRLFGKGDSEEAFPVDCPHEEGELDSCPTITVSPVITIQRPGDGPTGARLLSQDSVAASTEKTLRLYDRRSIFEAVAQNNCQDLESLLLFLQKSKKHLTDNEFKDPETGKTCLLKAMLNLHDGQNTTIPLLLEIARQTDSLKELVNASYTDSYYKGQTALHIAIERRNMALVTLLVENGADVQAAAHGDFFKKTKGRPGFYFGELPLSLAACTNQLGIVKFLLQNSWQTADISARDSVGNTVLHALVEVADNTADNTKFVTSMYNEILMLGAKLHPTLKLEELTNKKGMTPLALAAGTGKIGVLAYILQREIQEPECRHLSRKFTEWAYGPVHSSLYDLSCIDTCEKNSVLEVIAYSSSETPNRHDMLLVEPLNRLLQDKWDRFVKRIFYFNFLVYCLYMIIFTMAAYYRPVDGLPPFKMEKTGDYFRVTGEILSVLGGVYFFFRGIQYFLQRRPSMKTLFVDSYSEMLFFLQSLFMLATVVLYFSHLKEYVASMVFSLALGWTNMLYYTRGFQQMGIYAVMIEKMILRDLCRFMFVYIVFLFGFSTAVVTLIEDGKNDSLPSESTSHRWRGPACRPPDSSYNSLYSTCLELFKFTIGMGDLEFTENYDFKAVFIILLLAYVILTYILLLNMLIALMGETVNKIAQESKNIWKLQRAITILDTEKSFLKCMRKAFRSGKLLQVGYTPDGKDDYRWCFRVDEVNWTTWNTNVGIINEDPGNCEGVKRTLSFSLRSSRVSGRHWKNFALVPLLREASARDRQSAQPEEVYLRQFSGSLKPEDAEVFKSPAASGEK

hVR1 [3] = target: T2, hVR1; assay: Functional test on hVR1 after pH stimulus; assay type: cell-based, human being; set-up: key to IC50 (human being) hVR1, pH: agonist / partial agonist / no effect: AG=agonist; pAG=partial agonist; NE=no effect; settings: for IC50: includes value printed in brackets after pAG, read-out: IC50 (human being) hVR1 [nM], pH; for inhibition at 10 µM: read-out: IC50 (human being) hVR1, pH: inhibition (as a percentage)
hVR1 [4] = target: T2, hVR1; assay: Functional test on VR1, FLIPR Ca2+ influx in transfected CHO K1 cells, capsaicin; assay type: cell-based, human being; set-up: key to Ki (human being) [nM] Cap: agonist / partial agonist / no effect: AG=agonist; pAG=partial agonist; NE=no effect; settings: for Ki: capsaicin (Cap), includes values given in brackets after pAG, read-out: Ki (human being) [nM] Cap
Description: In the process, the Ca^2+ influx is quantified in the FLIPR assay with the aid of a Ca^2+-sensitive dye (type Fluo-4, Molecular Probes Europe BV, Leiden, the Netherlands) in a fluorescent imaging plate reader (FLIPR, Molecular Devices, Sunnyvale, USA), as described hereinafter.
II. Functional Tests Carried Out on the Vanilloid Receptor (VR1)
as §1, with “the” for “the rat-species”, “(VR1)” for “(VR1/TRPV1)”, “can also” for “can”, “the” for “the receptor”
Chinese hamster ovary cells (CHO K1 cells, European Collection of Cell Cultures (ECACC) United Kingdom) are stably transfected with the VR1 gene. For functional testing, these cells are plated out on poly-D-lysine-coated black 96-well plates having a clear base (BD Biosciences, Heidelberg, Germany) at a density of 25,000 cells/well. The cells are incubated overnight at 37° C. and 5% CO2 in a culture medium (Ham's F12 nutrient mixture, 10% by volume of FCS (foetal calf serum), 18 μg/ml of L-proline). The next day the cells are incubated with Fluo-4 (Fluo-4 2 μM, 0.01% by volume of Pluronic F127, Molecular Probes in HBSS (Hank's buffered saline solution), Gibco Invitrogen GmbH, Karlsruhe, Germany) for 30 minutes at 37° C. Subsequently, the plates are washed three times with HBSS buffer and after further incubation for 15 minutes at RT used for Ca^2+ measurement in a FLIPR assay. The Ca^2+-dependent fluorescence is measured before and after the addition of the substances to be tested (λex wavelength=488 nm, λem=540 nm). Quantification is carried out by measuring the highest fluorescence intensity (FC, fluorescence counts) over time.
The FLIPR protocol consists of 2 substance additions. First the compounds to be tested (10 μM) are pipetted onto the cells and the Ca^2+ influx is compared with the control (capsaicin 10 μM) (% activation based on the Ca^2+ signal after the addition of 10 μM of capsaicin). After 5 minutes' incubation, 100 nM of capsaicin are applied and the Ca^2+ influx is also determined.
Desensitising agonists and antagonists led to suppression of the Ca^2+ influx. The % inhibition is calculated compared to the maximum achievable inhibition with 10 μM of capsaicin.
Starting from the percentage displacement caused by different concentrations of the compounds to be tested of general formula I, IC50 inhibitory concentrations which cause a 50-per cent displacement of capsaicin were calculated. Ki values for the test substances were obtained by conversion by means of the Cheng-Prusoff equation (Cheng, Prusoff; Biochem. Pharmacol. 22, 3099-3108, 1973).
The affinity of the compounds according to the invention for the vanilloid receptor 1 (VR1/TRPV1 receptor) was determined as described hereinbefore (pharmacological methods I and II respectively).

Structure (SMILES) | IC50 (human being) hVR1, pH: agonist / partial agonist / no effect (hVR1 [3]) | Ki (human being) [nM] Cap: agonist / partial agonist / no effect (hVR1 [4]) | Ki (hVR1 [4]) [nM] | Ki [1] [nM] | further results
CC(C(=O)NCc1cc(C(C)(C)C)nn1-c1cccc(Cl)c1)c1cccc2c1OCCO2 (centres unmarked) [Example 14, N-((3-tert-butyl-1-(3-chlorophenyl)-1H-pyrazol-5-yl)methyl)-2-(2,3-dihydrobenzo[b][1,4]dioxin-5-yl)propanamide] | – | – | – | – | Ki (rat) [nM] Cap: agonist / partial agonist / no effect [1]: AG
CC(C(=O)NCc1cc(C(C)(C)C)nn1-c1cccc(Cl)c1)c1ccc2c(c1)OCCCO2 (centres unmarked) [Example 15, N-((3-tert-butyl-1-(3-chlorophenyl)-1H-pyrazol-5-yl)methyl)-2-(3,4-dihydro-2H-benzo[b][1,4]dioxepin-7-yl)propanamide] | pAG | pAG | 25 | – | Ki (rat) [nM] Cap: agonist / partial agonist / no effect [1]: AG; IC50 (human being), 45° C.: agonist / partial agonist / no effect (hVR1 [2]): pAG; IC50 (hVR1 [3]): 412 nM
CC(C(=O)NCc1cc(C(F)(F)F)nn1-c1cccc(Cl)c1)c1ccc2[nH]ccc2c1 (centres unmarked) [Example 31, N-((1-(3-chlorophenyl)-3-(trifluoromethyl)-1H-pyrazol-5-yl)methyl)-2-(1H-indol-5-yl)propanamide] | pAG | pAG | 2.4 | – | –
CC(C(=O)NCc1cc(C(F)(F)F)nn1-c1cccc(Cl)c1)c1ccc2[nH]ncc2c1 (centres unmarked) [Example 35, N-((1-(3-chlorophenyl)-3-(trifluoromethyl)-1H-pyrazol-5-yl)methyl)-2-(1H-indazol-5-yl)propanamide] | pAG | pAG | 0.3 | – | IC50 (human being), 45° C.: agonist / partial agonist / no effect (hVR1 [2]): pAG
CC(C(=O)NCc1cc(C(F)(F)F)nn1-c1cccc(Cl)c1)c1cccc2ccc(O)cc12 (centres unmarked) [Example 58, N-((1-(3-chlorophenyl)-3-(trifluoromethyl)-1H-pyrazol-5-yl)methyl)-2-(7-hydroxynaphthalen-1-yl)propanamide] | – | – | 0.7 | 7.6 | inhibition at 2.5 µM (hVR1 [2]; @ 2.5 μM, read-out: IC50 (human being), 45° C.: inhibition (as a percentage)): 41%; IC50 (hVR1 [3]): 4930 nM
CC(C(=O)NCc1cc(C(C)(C)C)nn1-c1cccc(Cl)c1)c1cccc2cnccc12 (centres unmarked) [Example 63, N-((3-tert-butyl-1-(3-chlorophenyl)-1H-pyrazol-5-yl)methyl)-2-(isoquinolin-5-yl)propanamide] | – | – | 0.2 | 0.5 | Ki (rat) [nM] Cap: agonist / partial agonist / no effect [1]: pAG; inhibition at 0.6 µM (hVR1 [2]; @ 0.6 μM, read-out: IC50 (human being), 45° C.: inhibition (as a percentage)): 9%; inhibition at 10 µM (hVR1 [3]): 33%
Cc1cc2c(C(C)C(=O)NCc3cc(C(F)(F)F)nn3-c3cccc(Cl)c3)cccc2cn1 (centres unmarked) [Example 65, N-((1-(3-chlorophenyl)-3-(trifluoromethyl)-1H-pyrazol-5-yl)methyl)-2-(3-methylisoquinolin-5-yl)propanamide] | – | – | 0.3 | – | IC50 (hVR1 [2]): 780 nM; inhibition at 10 µM (hVR1 [3]): 23%
CC(C(=O)NCc1cc(C(C)(C)C)nn1-c1cccc(Cl)c1)c1cccc2ncccc12 (centres unmarked) [Example 70, N-((3-tert-butyl-1-(3-chlorophenyl)-1H-pyrazol-5-yl)methyl)-2-(quinolin-5-yl)propanamide] | AG | AG | – | – | IC50 (human being), 45° C.: agonist / partial agonist / no effect (hVR1 [2]): AG
CC(C(=O)NCc1cc(C(C)(C)C)nn1-c1cccc(Cl)c1)c1ccc2nccnc2c1 (centres unmarked) [Example 77, N-((3-tert-butyl-1-(3-chlorophenyl)-1H-pyrazol-5-yl)methyl)-2-(quinoxalin-6-yl)propanamide] | – | – | 35.4 | 34.2 | inhibition at 10 µM (hVR1 [2]; @ 10 μM, read-out: IC50 (human being), 45° C.: inhibition (as a percentage)): -17%; inhibition at 10 µM (hVR1 [3]): 23%
O=C(NCc1cc(C(F)(F)F)nn1-c1cccc(Cl)c1)Nc1ccc2c(c1)OCCO2 [Example 84, 1-((1-(3-chlorophenyl)-3-(trifluoromethyl)-1H-pyrazol-5-yl)methyl)-3-(2,3-dihydrobenzo[b][1,4]dioxin-6-yl)urea] | – | – | 51.6 | 181 | IC50 (hVR1 [2]): 235 nM
O=C(NCc1cc(C(F)(F)F)nn1-c1cccc(Cl)c1)Nc1ccc2ncsc2c1 [Example 96, 1-(benzo[d]thiazol-6-yl)-3-((1-(3-chlorophenyl)-3-(trifluoromethyl)-1H-pyrazol-5-yl)methyl)urea] | pAG | pAG | 7.3 | – | –
CC(C)(C)c1cc(CNC(=O)Nc2cc(F)cc3[nH]ncc23)n(-c2ccccn2)n1 [Example 216, 1-((3-tert-butyl-1-(pyridin-2-yl)-1H-pyrazol-5-yl)methyl)-3-(6-fluoro-1H-indazol-4-yl)urea] | – | – | 54 | – | IC50 (hVR1 [2]): 2120 nM

— US8334315B2, “Substituted aromatic carboxamide and urea derivatives as vanilloid receptor ligands” (Gruenenthal GmbH, priority 2009, dated 2012)
